Assays:
Nav1.6 = Nav1.6 (Homo sapiens, UniProt Q9UQD0); assay: Nav 1.6 inhibition, IonWorks Quattro electrophysiology; type: cell-based; conditions: for inhibition at 1 µM / inhibition at 5 µM: normalized to vehicle control (0%) and maximal inhibition control (100%)
Procedure, shortened: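 Human Nav1.6 currents recorded on IonWorks Quattro with amphotericin B (200 μg/ml) perforated access; compounds at final 1 and 5 μM in 0.3% DMSO. Cells held at −120 mV, prepulsed to 0 mV for 2500 ms, 10 ms recovery at −120 mV, then 20 ms test pulse to 0 mV; values are normalized percentage inhibition.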

[1] = Metabolic stability in pooled human liver microsomes; type: in vitro ADME; conditions: pH 7.6, 1 μM compound, 37° C., NADPH, read-out: Half-life - t½ human liver microsomes
From the text: Stability in human liver microsomes refers to the susceptibility of compounds to biotransformation in the context of selecting and/or designing drugs with favorable pharmacokinetic properties. The primary site of metabolism for many drugs is the liver. Human liver microsomes contain the cytochrome P450s (CYPs), and thus represent a model system for studying drug metabolism in vitro Enhanced stability in human liver microsomes is associated with several advantages, including increased bioavailability and adequate half-life, which can enable lower and less frequent dosing of patients. Thus, enhanced stability in human liver microsomes is a favorable characteristic for compounds that are to be used for drugs.
The metabolic degradation of the test compound was assayed at 37° C. with pooled human liver microsomes. The final incubation volume of 60 μl per time point contains TRIS buffer pH 7.6 at room temperature (0.1 M), magnesium chloride (5 mM aqueous solution), microsomal protein (1 mg/mL for human) and the test compound at a final concentration of 1 μM. Following a short preincubation period at 37° C., the reactions were initiated by addition of betanicotinamide adenine dinucleotide phosphate, reduced form (NADPH, 1 mM), and terminated by transferring an aliquot into acetonitril after different time points. After centrifugation (10000 g, 5 min), an aliquot of the supernatant was assayed by HPLC-MS/MS as described above for the MDCK assay P-gp for the amount of parent compound. The half-life was determined by the slope of the semi-logarithmic plot of the concentration-time profile.

MDR1 (P-gp) = target: T1, MDR1 (P-gp) (Homo sapiens, UniProt P08183); assay: MDCK assay P-gp (permeability across MDCK-MDR1 monolayers); type: in vitro ADME; conditions: for Papp A→B at 2 h: apical-to-basal, MDCK-MDR1 monolayers, pH 7.4; for efflux ratio at 2 h: pH 7.4, Papp (b-a) divided by Papp (a-b), MDCK-MDR1, read-out: efflux ratio PEBA/PEAB
T1 construct: expressed in transfected cells; host or cells: MDCKII (Madin-Darby canine kidney)
T1 sequence (P08183 whole entry): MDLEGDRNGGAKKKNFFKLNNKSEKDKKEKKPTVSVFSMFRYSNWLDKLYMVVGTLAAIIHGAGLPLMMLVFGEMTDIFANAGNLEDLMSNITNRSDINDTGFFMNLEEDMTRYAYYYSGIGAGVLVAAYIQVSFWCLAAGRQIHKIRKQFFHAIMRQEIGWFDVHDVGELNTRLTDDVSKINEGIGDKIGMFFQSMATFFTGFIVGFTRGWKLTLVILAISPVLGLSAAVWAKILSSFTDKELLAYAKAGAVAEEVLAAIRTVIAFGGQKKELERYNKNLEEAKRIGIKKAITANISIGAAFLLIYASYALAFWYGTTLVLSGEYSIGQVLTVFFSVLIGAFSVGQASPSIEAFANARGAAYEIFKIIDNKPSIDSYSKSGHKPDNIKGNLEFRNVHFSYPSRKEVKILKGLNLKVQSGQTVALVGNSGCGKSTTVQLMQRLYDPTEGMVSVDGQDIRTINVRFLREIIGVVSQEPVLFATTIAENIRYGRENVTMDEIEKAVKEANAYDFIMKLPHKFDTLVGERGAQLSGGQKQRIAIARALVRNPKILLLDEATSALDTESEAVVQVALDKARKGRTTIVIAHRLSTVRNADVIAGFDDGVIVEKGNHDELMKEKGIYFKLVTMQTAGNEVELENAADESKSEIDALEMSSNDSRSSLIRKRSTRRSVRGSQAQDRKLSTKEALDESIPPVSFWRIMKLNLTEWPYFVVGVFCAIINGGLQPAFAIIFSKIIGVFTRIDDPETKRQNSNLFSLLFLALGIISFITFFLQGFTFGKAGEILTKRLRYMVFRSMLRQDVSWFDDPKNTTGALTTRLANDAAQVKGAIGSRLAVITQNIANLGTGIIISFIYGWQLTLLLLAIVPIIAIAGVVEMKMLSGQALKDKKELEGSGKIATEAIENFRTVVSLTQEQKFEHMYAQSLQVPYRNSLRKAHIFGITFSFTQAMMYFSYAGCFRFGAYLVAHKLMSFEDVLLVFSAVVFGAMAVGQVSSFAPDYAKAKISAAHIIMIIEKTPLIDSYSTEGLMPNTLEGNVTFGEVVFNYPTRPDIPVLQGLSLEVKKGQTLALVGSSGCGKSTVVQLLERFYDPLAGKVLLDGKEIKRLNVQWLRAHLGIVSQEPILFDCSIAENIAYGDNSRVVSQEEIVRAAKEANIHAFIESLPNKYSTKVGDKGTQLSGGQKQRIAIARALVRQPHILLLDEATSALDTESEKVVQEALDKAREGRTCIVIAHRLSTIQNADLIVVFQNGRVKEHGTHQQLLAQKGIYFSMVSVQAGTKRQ
Protocol: The MDCK assays provide information on the potential of a compound to pass the blood brain barrier. Permeability measurements across polarized, confluent MDCK-MDR1 cell monolayers grown on permeable filter supports are used as an in vitro absorption model: apparent permeability coefficients (PE) of the compounds across the MDCK-MDR1 cell monolayers are measured (pH 7.4, 37° C.) in apical-to-basal (AB) and basal-to-apical (BA) transport direction. The AB permeability (PEAB) represents drug absorption from the blood into the brain and the BA permeability (PEBA) drug efflux from the brain back into the blood via both, passive permeability as well as active transport mechanisms mediated by efflux and uptake transporters that are expressed on the MDCK-MDR1 cells, predominantly by the overexpressed human MDR1. Identical or similar permeabilities in both transport directions indicate passive permeation (PEBA/PEAB≤1), vectorial permeability points to additional active transport mechanisms. Higher PEBA than PEAB (PEBA/PEAB>5) indicates the involvement of active efflux mediated by MDR1, which might compromise the goal to achieve sufficient brain exposure. Therefore, this assay provides valuable support for selection of compounds applicable for further in vivo testing. High permeability not limited by efflux at the blood brain barrier is a favorable characteristic for compounds that are to be used for drugs acting primarily in the CNS.
Apparent permeability coefficients (Papp) of the compounds across the MDCK-MDR1 monolayers (MDCKII cells transfected with human MDR1 cDNA expression plasmid) are measured in apical-to-basal (AB) and basal-to-apical (BA) direction. MDCK-MDR1 cells (6×10^5 cells/cm^2) are seeded on filter inserts (Corning, Transwell, polycarbonate, 0.4 μm pore size) and cultured for 9 to 10 days. Compounds dissolved in DMSO stock solution (1-20 mM) are diluted with HTP-4 aqueous buffer (128.13 mM NaCl, 5.36 mM KCl, 1 mM MgSO4, 1.8 mM CaCl2, 4.17 mM NaHCO3, 1.19 mM Na2HPO4, 0.41 mM NaH2PO4, 15 mM HEPES, 20 mM glucose, pH 7.4) supplemented with 0.25% BSA to prepare the transport solutions (final concentration: 1 or 10 μM, final DMSO<=0.5%). The transport solution is applied to the apical or basolateral donor side for measuring A-B or B-A permeability, respectively. The receiver side contains HTP-4 buffer supplemented with 0.25% BSA. Samples are collected at the start and end of experiment from the donor and at various time intervals for up to 2 hours also from the receiver side for concentration measurement by HPLC-MS/MS (RapidFire High-throughput MS System (Agilent) coupled to QTrap 6500 (AB Sciex) or TSQ Vantage (Thermo Scientific)). Sampled receiver volumes are replaced with fresh receiver solution. Efflux ratio is calculated dividing the Papp (b-a) values by the Papp (a-b) values.

Chain of Nav1.6 (Q9UQD0 whole entry): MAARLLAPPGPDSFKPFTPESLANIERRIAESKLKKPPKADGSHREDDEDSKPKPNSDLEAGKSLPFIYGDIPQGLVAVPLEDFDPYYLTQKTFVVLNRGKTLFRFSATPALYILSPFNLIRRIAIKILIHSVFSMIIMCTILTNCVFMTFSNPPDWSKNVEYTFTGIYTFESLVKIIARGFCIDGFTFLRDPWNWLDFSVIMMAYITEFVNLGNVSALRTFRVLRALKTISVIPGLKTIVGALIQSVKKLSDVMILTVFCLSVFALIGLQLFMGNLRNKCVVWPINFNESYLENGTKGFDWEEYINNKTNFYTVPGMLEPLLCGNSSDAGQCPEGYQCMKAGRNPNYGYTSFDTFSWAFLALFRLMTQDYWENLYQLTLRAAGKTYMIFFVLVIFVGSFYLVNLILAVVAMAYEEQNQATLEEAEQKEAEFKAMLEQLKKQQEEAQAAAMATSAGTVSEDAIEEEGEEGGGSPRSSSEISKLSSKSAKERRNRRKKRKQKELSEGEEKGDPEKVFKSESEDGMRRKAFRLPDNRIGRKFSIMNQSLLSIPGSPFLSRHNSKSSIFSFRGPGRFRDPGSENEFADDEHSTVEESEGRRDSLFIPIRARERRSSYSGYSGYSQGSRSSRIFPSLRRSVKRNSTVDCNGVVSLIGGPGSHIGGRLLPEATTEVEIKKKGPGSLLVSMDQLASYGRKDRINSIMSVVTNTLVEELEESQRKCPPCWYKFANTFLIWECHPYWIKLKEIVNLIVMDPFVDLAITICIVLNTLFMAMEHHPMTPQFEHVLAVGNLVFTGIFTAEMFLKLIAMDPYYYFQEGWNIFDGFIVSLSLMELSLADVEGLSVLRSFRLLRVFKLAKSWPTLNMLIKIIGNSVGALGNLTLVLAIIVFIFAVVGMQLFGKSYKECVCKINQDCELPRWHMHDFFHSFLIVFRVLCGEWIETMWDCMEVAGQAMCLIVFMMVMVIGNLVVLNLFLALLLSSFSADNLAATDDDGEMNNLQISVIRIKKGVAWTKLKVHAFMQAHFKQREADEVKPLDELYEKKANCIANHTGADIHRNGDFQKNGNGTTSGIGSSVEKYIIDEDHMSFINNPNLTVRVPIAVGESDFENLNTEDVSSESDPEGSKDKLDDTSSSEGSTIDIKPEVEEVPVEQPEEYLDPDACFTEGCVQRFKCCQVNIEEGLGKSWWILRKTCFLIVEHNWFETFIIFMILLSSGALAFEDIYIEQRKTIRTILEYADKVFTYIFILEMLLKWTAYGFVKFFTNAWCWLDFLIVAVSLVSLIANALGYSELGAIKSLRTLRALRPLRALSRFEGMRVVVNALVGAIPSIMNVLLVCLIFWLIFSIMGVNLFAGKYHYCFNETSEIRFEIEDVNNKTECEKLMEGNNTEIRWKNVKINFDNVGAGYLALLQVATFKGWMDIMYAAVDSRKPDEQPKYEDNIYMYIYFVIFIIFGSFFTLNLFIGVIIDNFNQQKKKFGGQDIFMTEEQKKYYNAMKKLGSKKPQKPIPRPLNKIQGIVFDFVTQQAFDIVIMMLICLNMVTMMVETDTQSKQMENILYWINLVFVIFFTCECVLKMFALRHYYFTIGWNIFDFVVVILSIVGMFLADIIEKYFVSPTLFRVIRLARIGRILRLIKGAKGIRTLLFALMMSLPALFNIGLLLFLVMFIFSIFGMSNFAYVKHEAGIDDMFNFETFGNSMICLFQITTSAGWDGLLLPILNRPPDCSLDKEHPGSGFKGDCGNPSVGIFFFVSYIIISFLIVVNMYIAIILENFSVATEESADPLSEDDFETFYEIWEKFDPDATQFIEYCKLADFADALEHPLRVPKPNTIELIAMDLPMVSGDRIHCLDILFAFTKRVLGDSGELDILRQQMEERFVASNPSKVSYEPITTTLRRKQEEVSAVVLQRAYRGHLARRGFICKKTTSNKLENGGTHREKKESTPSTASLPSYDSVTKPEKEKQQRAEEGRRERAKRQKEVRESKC

| SMILES | inhibition at 1 µM (Nav1.6) [%] | inhibition at 5 µM (Nav1.6) [%] | half-life at 1 μM [1] [h] | Papp A→B at 2 h (MDR1 (P-gp)) [×10⁻⁶ cm/s] | efflux ratio at 2 h (MDR1 (P-gp)) | significant inhibition of the Nav 1.6 channel (in words) (Nav1.6; at 5 μM) |
| --- | --- | --- | --- | --- | --- | --- |
| CNC(=O)[C@@H]1CN(Cc2ccc(Oc3ccccc3Cl)nc2)CCO1 [Example 17] | 22 | -4.3 | > 2.17 | 67 | 0.6 |  |
| CNC(=O)[C@@H]1CN(Cc2ccc(Oc3ccccc3F)nc2)CCO1 [Example 19] | 5.2 | -6.3 | > 2.17 | 75 | 0.7 | not showing any significant inhibition |
| CNC(=O)[C@@H]1CN(Cc2ccc(Oc3ccc(C)cc3)nc2)CCO1 [Example 29] | 1.8 | 3 | > 2.17 | 58 | 0.8 |  |
| CNC(=O)[C@@H]1CN(Cc2ccc(Oc3ccc(F)cc3)cn2)CCO1 [Example 30] | 7.6 | 6.8 | > 2.17 | 86 | 0.5 |  |
